Active and inactive are the calls of the source. No cut-off for these calls is given here.
Tests used:
Acinetobacter baumannii [1] = assay: Antibacterial activity against Acinetobacter baumannii isolate C expressing 16S rRNA methylase armA gene; format: functional
Acinetobacter baumannii [2] = assay: Antibacterial activity against Acinetobacter baumannii isolate D expressing 16S rRNA methylase armA gene; format: functional
Acinetobacter baumannii [3] = assay: Antibacterial activity against Acinetobacter baumannii isolate E expressing 16S rRNA methylase armA gene; format: functional
Escherichia coli [4] = assay: Antibacterial activity against Escherichia coli DH10B expressing Acinetobacter baumannii isolate B 16S rRNA methylase armA gene; format: functional; settings: K-12 substr. DH10B
Acinetobacter baumannii [5] = assay: Antibacterial activity against Acinetobacter baumannii isolate A expressing 16S rRNA methylase armA gene; format: functional
Acinetobacter baumannii [6] = assay: Antibacterial activity against Acinetobacter baumannii isolate B expressing 16S rRNA methylase armA gene; format: functional
Escherichia coli [7] = assay: Antimicrobial activity against azide-resistant Escherichia coli J53 transconjugant with 16S rRNA methylase armA gene expressing Acinetobacter baumannii isolate C; format: functional, organism-based
Escherichia coli [8] = assay: Antimicrobial activity against azide-resistant Escherichia coli J53 transconjugant with 16S rRNA methylase armA gene expressing Acinetobacter baumannii isolate D; format: functional, organism-based
Acinetobacter baumannii [9] = assay: Antimicrobial activity against colistin-resistant Acinetobacter baumannii 213 transconjugant with 16S rRNA methylase armA gene expressing Acinetobacter baumannii isolate A; format: functional, organism-based
Acinetobacter baumannii [10] = assay: Antimicrobial activity against colistin-resistant Acinetobacter baumannii 213 transconjugant with 16S rRNA methylase armA gene expressing Acinetobacter baumannii isolate D; format: functional, organism-based
Escherichia coli [11] = assay: Antimicrobial activity against azide-resistant Escherichia coli J53 transconjugant with 16S rRNA methylase armA gene expressing Acinetobacter baumannii isolate B; format: functional, organism-based
Acinetobacter baumannii [12] = assay: Antibacterial activity against armA knockout Acinetobacter baumannii 231; format: functional, organism-based
Acinetobacter baumannii [13] = assay: Antimicrobial activity against colistin-resistant Acinetobacter baumannii 213 transconjugant with 16S rRNA methylase armA gene expressing Acinetobacter baumannii isolate E; format: functional, organism-based
Acinetobacter baumannii [14] = assay: Antimicrobial activity against colistin-resistant Acinetobacter baumannii 213 transconjugant with 16S rRNA methylase armA gene expressing Acinetobacter baumannii isolate C; format: functional, organism-based
Acinetobacter baumannii [15] = assay: Antimicrobial activity against colistin-resistant Acinetobacter baumannii 213 transconjugant with 16S rRNA methylase armA gene expressing Acinetobacter baumannii isolate B; format: functional, organism-based
Escherichia coli [16] = assay: Antimicrobial activity against azide-resistant Escherichia coli J53 transconjugant with 16S rRNA methylase armA gene expressing Acinetobacter baumannii isolate E; format: functional, organism-based
Escherichia coli [17] = assay: Antimicrobial activity against azide-resistant Escherichia coli J53 transconjugant with 16S rRNA methylase armA gene expressing Acinetobacter baumannii isolate A; format: functional, organism-based

| Compound | MIC (Acinetobacter baumannii [1]) [µg/mL] | MIC (Acinetobacter baumannii [2]) [µg/mL] | MIC (Acinetobacter baumannii [3]) [µg/mL] | MIC (Escherichia coli [4]) [µg/mL] | MIC (Acinetobacter baumannii [5]) [µg/mL] | MIC (Acinetobacter baumannii [6]) [µg/mL] | Activity (Escherichia coli [7]) | Activity (Escherichia coli [8]) | Activity (Acinetobacter baumannii [9]) | Activity (Acinetobacter baumannii [10]) | Activity (Escherichia coli [11]) | Activity (Acinetobacter baumannii [12]) | Activity (Acinetobacter baumannii [13]) | Activity (Acinetobacter baumannii [14]) | Activity (Acinetobacter baumannii [15]) | Activity (Escherichia coli [16]) | Activity (Escherichia coli [17]) |
| --- | --- | --- | --- | --- | --- | --- | --- | --- | --- | --- | --- | --- | --- | --- | --- | --- | --- |
| NC[C@H]1O[C@H](O[C@H]2[C@H](O)[C@@H](O[C@H]3O[C@H](CO)[C@@H](O)[C@H](N)[C@H]3O)[C@H](N)C[C@@H]2N)[C@H](N)C[C@@H]1O [TOBRAMYCIN] | > 512 | > 512 | > 512 | ≥ 256 | > 512 | > 512 |  |  |  |  |  |  |  |  |  |  |  |
| NCC[C@H](O)C(=O)N[C@@H]1C[C@H](N)[C@@H](O[C@H]2O[C@H](CN)[C@@H](O)[C@H](O)[C@H]2O)[C@H](O)[C@H]1O[C@H]1O[C@H](CO)[C@@H](O)[C@H](N)[C@H]1O [AMIKACIN] | > 512 | > 512 | > 512 | ≥ 256 | > 512 | > 512 | Active | Active | Active | Active | Active | Active | Active | Active | Active | Active | Active |
| GENTAMICIN | > 512 | > 512 | > 512 | > 256 | > 512 | > 512 |  |  |  |  |  |  |  |  |  |  |  |
